{
  "source": "patent US20240360107A1",
  "about": "“AN EIF4A INHIBITOR WITH A NOVEL MECHANISM OF ACTION” (ARIZONA BOARD OF REGENTS ON BEHALF OF THE UNIVERSITY OF …, priority 2021, published 2024)",
  "note": "“Also recorded” adds a separate entry of the source.",
  "data": [
    {"molecular_target": "eIF4A (Homo sapiens, UniProt P60842)", "sequence (P60842 whole entry)": "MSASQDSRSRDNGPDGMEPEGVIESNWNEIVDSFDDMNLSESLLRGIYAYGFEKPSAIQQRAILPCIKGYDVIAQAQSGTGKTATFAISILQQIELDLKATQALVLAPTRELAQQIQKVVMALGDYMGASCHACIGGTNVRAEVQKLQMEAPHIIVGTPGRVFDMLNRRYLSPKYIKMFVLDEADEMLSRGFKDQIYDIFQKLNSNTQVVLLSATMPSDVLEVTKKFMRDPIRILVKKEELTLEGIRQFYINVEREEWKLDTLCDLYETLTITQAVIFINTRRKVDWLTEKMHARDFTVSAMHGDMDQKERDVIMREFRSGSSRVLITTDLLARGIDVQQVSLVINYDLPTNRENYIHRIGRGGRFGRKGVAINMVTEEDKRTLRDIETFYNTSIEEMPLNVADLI", "assay": "RNA-stimulated malachite green ATPase assay", "format": "biochemical", "design": "6xHis with TEV protease site (N, cleaved yes); made in house; host or cells: E. coli BL21-CodonPlus", "conditions": "comparison within the series", "description": "(§1) Human eIF4A protein was produced recombinantly and a greater than 100,000-compound screen for inhibitors was completed using a malachite green ATPase assay (FIG. 11A). […] A stable mixture of yeast RNAs was added in an effort to improve this system and create a more biologically relevant eIF4A assay. eIF4A ATPase activity was accelerated without a statistically significant increase in the background signal in the presence of this RNA (FIG. 11B), and the new conditions gave excellent statistical parameters in a 384-well plate format (FIG. 11C).\n(§2) ATPase assay. Recombinant WT or mutant eIF4A was added to a clear bottom 384 well plate (Greiner) in ATPase buffer (20 mM Tris pH 7.4, 80 mM KCl, 2.5 mM MgCl2, 1 mM DTT, 1% glycerol). Compounds were added and the plate was incubated at 37° C. for 20 min. ATP/RNA solution was added to afford a 20 μL per well reaction volume with 750 nM eIF4A, 250 μM ATP, and 0.25 mg/mL Yeast RNA (Sigma) for the initial screen and dose responses, and varying concentrations of ATP and RNA for the kinetic assays. The plate was incubated for 4 h at 37° C. for the initial screen and dose responses, and at seven time points (1 hour-7 hours) for kinetic assays. 0.04% v/v (final concentration) Tween-20 was added to a Malachite Green solution, and the Malachite Green (40 μL per well) was added. The solution was incubated for 5 minutes at room temperature and Absorbance at 660 nm was read on a SpectraMax iD5 plate reader (Molecular Devices).", "values": [
      {"smiles": "CC(C)(C)OC(=O)Nc1cccc(-c2ccc(-c3cc(C(=O)O)c4cc([N+](=O)[O-])ccc4n3)o2)c1", "note": "[Compound 44, 2-(5-(3-((tert-butoxycarbonyl)amino)phenyl)furan-2-yl)-6-nitroquinoline-4-carboxyli c acid]", "potency in the eIF4A ATPase assay (in words)": "low potency"},
      {"smiles": "CC(C)(C)OC(=O)Nc1ccc(-c2ccc(-c3cc(C(=O)O)c4cc([N+](=O)[O-])ccc4n3)o2)cc1", "note": "[Compound 45, 2-(5-(4-((tert-butoxycarbonyl)amino)phenyl)furan-2-yl)-6-nitroquinoline-4-carboxylic acid]", "potency in the eIF4A ATPase assay (in words)": "low potency"},
      {"smiles": "CCCCc1ccc(-c2ccc(-c3cc(C(=O)O)c4cccc(Cl)c4n3)o2)cc1", "note": "[Compound 11, 2-(5-(4-butylphenyl)furan-2-yl)-8-chloroquinoline-4-carboxylic acid]", "potency in the eIF4A ATPase assay (in words)": "less potent than bromine (12)"},
      {"smiles": "O=C(O)c1cc(-c2ccc(-c3ccc4c(c3)OCO4)o2)nc2ccc([N+](=O)[O-])cc12", "note": "[Compound 48, 2-(5-(benzo[d][1,3]dioxol-5-yl)furan-2-yl)-6-nitroquinoline-4-carboxylic acid]", "potency in the eIF4A ATPase assay (in words)": "lost all potency"},
      {"smiles": "O=C(O)c1cc(-c2ccc(-c3cccc(-c4ccccc4)c3)o2)nc2ccc([N+](=O)[O-])cc12", "note": "[Compound 51, 2-(5-([1,1′-biphenyl]-3-yl)furan-2-yl)-6-nitroquinoline-4-carboxylic acid]", "potency in the eIF4A ATPase assay (in words)": "less potent than compound 28"},
      {"smiles": "CCCCc1ccc(-c2ccc(-c3cc(C(=O)O)c4cc([N+](=O)[O-])ccc4n3)cc2)cc1", "note": "[Compound 36, 2-(4′-butyl-[1,1′-biphenyl]-4-yl)-6-nitroquinoline-4-carboxylic acid]", "potency in the eIF4A ATPase assay (in words)": "much less potent than 28"},
      {"smiles": "O=C(O)c1cc(-c2ccc(-c3ccccc3)o2)nc2ccc([N+](=O)[O-])cc12", "note": "[Compound 38, 6-nitro-2-(5-phenylfuran-2-yl)quinoline-4-carboxylic acid]", "potency in the eIF4A ATPase assay (in words)": "drastic loss in potency"},
      {"smiles": "CCCCc1ccc(-c2ccc(-c3cc(C(=O)O)c4cccc(C(F)(F)F)c4n3)o2)cc1", "note": "[Compound 27, 2-(5-(4-butylphenyl)furan-2-yl)-8-(trifluoromethyl)quinoline-4-carboxylic acid]", "potency in the eIF4A ATPase assay (in words)": "performed better in the ATPase assay than molecules with electron-donating substitutions; also recorded: about two-fold better than compound 26"},
      {"smiles": "CCCCc1ccc(-c2ccc(-c3cc(C(=O)O)c4c(Cl)cccc4n3)o2)cc1", "note": "[Compound 4, 2-(5-(4-butylphenyl)furan-2-yl)-5-chloroquinoline-4-carboxylic acid]", "potency in the eIF4A ATPase assay (in words)": "large drop in potency"},
      {"smiles": "CCCCc1ccc(-c2ccc(-c3cc(C(=O)O)c4cc([N+](=O)[O-])ccc4n3)s2)cc1", "note": "[Compound 31, 2-(5-(4-butylphenyl)thiophen-2-yl)-6-nitroquinoline-4-carboxylic acid]", "potency in the eIF4A ATPase assay (in words)": "large drop in potency"},
      {"smiles": "CCCCc1ccc(-c2ccc(-c3cc(C(=O)O)c4ccccc4n3)o2)cc1", "note": "[Compound 3, 2-(5-(4-butylphenyl)furan-2-yl)quinoline-4-carboxylic acid]", "potency in the eIF4A ATPase assay (in words)": "much less potent than compound 1"},
      {"smiles": "CCCCc1ccc(-c2ccc(-c3cc(C(=O)O)c4cc(OC)ccc4n3)o2)cc1", "note": "[Compound 21, 2-(5-(4-butylphenyl)furan-2-yl)-6-methoxyquinoline-4-carboxylic acid]", "potency in the eIF4A ATPase assay (in words)": "much more potent than 7-methoxy (22)"},
      {"smiles": "CCCCc1ccc(-c2ccc(-c3cc(C(=O)O)c4ccc(Br)cc4n3)o2)cc1", "note": "[Compound 10, 7-bromo-2-(5-(4-butylphenyl)furan-2-yl)quinoline-4-carboxylic acid]", "potency in the eIF4A ATPase assay (in words)": "moderate potency"},
      {"smiles": "CCCCc1ccc(-c2ccc(-c3cc(C(=O)O)c4ccc(OC)cc4n3)o2)cc1", "note": "[Compound 22, 2-(5-(4-butylphenyl)furan-2-yl)-7-methoxyquinoline-4-carboxylic acid]", "potency in the eIF4A ATPase assay (in words)": "neither were more potent than earlier molecules in the series"},
      {"smiles": "CCCCc1ccc(-c2ccc(-c3cc(C(=O)O)c4ccc(F)cc4n3)o2)cc1", "note": "[Compound 8, 2-(5-(4-butylphenyl)furan-2-yl)-7-fluoroquinoline-4-carboxylic acid]", "potency in the eIF4A ATPase assay (in words)": "moderate potency"},
      {"smiles": "CCCCc1ccc(-c2ccc(-c3cc(C(=O)O)c4cc(OC(F)(F)F)ccc4n3)o2)cc1", "note": "[Compound 23, 2-(5-(4-butylphenyl)furan-2-yl)-6-(trifluoromethoxy)quinoline-4-carboxylic acid]", "potency in the eIF4A ATPase assay (in words)": "much less potent than compound 21"},
      {"smiles": "O=C(O)c1cc(-c2ccc(-c3ccc(-c4ccccc4)cc3)o2)nc2ccc([N+](=O)[O-])cc12", "note": "[Compound 50, 2-(5-([1,1′-biphenyl]-4-yl)furan-2-yl)-6-nitroquinoline-4-carboxylic acid]", "potency in the eIF4A ATPase assay (in words)": "less potent than compound 28; also recorded: more potent than meta-substituted 51"},
      {"smiles": "CCCCc1ccc(-c2ccc(-c3cc(C(=O)O)c4cc([N+](=O)[O-])ccc4n3)[nH]2)cc1", "note": "[Compound 32, 2-(5-(4-butylphenyl)-1H-pyrrol-2-yl)-6-nitroquinoline-4-carboxylic acid]", "potency in the eIF4A ATPase assay (in words)": "large drop in potency"},
      {"smiles": "CCCCc1ccc(-c2ccc(-c3cc(C(=O)O)c4cc(Cl)ccc4n3)o2)cc1", "note": "[Compound 6, 2-(5-(4-butylphenyl)furan-2-yl)-6-chloroquinoline-4-carboxylic acid]", "potency in the eIF4A ATPase assay (in words)": "moderate losses of potency compared to the bromine substituent"},
      {"smiles": "CCCCc1ccc(-c2ccc(-c3cc(C(=O)O)c4cc([N+](=O)[O-])ccc4n3)cn2)cc1", "note": "[Compound 37, 2-(6-(4-butylphenyl)pyridin-3-yl)-6-nitroquinoline-4-carboxylic acid]", "potency in the eIF4A ATPase assay (in words)": "much less potent than 28"},
      {"smiles": "CCCCc1ccc(-c2cccc(-c3cc(C(=O)O)c4cc([N+](=O)[O-])ccc4n3)c2)cc1", "note": "[Compound 33, 2-(4′-butyl-[1,1′-biphenyl]-3-yl)-6-nitroquinoline-4-carboxylic acid]", "potency in the eIF4A ATPase assay (in words)": "drop in potency"},
      {"smiles": "CCCCc1ccc(-c2cncc(-c3cc(C(=O)O)c4cc([N+](=O)[O-])ccc4n3)c2)cc1", "note": "[Compound 35, 2-(5-(4-butylphenyl)pyridin-3-yl)-6-nitroquinoline-4-carboxylic acid]", "potency in the eIF4A ATPase assay (in words)": "lost potency altogether"},
      {"smiles": "CCCCc1ccc(-c2cccc(-c3cc(C(=O)O)c4cc([N+](=O)[O-])ccc4n3)n2)cc1", "note": "[Compound 34, 2-(6-(4-butylphenyl)pyridin-2-yl)-6-nitroquinoline-4-carboxylic acid]", "potency in the eIF4A ATPase assay (in words)": "drop in potency"},
      {"smiles": "CCCCc1ccc(-c2ccc(-c3cc(C(=O)O)c4cc(I)ccc4n3)o2)cc1", "note": "[Compound 7, 2-(5-(4-butylphenyl)furan-2-yl)-6-iodoquinoline-4-carboxylic acid]", "potency in the eIF4A ATPase assay (in words)": "moderate losses of potency compared to the bromine substituent"},
      {"smiles": "CCCCc1ccc(-c2ccc(-c3cc(C(=O)O)c4ccc(C(F)(F)F)cc4n3)o2)cc1", "note": "[Compound 26, 2-(5-(4-butylphenyl)furan-2-yl)-7-(trifluoromethyl)quinoline-4-carboxylic acid]", "potency in the eIF4A ATPase assay (in words)": "performed better in the ATPase assay than molecules with electron-donating substitutions"},
      {"smiles": "CCCCCc1ccc(-c2ccc(-c3cc(C(=O)O)c4cc([N+](=O)[O-])ccc4n3)o2)cc1", "note": "[Compound 40, 6-nitro-2-(5-(4-pentylphenyl)furan-2-yl)quinoline-4-carboxylic acid]", "potency in the eIF4A ATPase assay (in words)": "no more potent than 28"},
      {"smiles": "O=C(O)c1cc(-c2ccc(-c3cccc4ccccc34)o2)nc2ccc([N+](=O)[O-])cc12", "note": "[Compound 49, 2-(5-(naphthalen-1-yl)furan-2-yl)-6-nitroquinoline-4-carboxylic acid]", "potency in the eIF4A ATPase assay (in words)": "about four-fold less potent than compound 28"},
      {"smiles": "CCCCc1ccc(-c2ccc(-c3cc(C(=O)O)c4cccc([N+](=O)[O-])c4n3)o2)cc1", "note": "[Compound 30, 2-(5-(4-butylphenyl)furan-2-yl)-8-nitroquinoline-4-carboxylic acid]", "potency in the eIF4A ATPase assay (in words)": "over three-fold less potent than compound 28"}
    ]},
    {"molecular_target": "eIF4A (Homo sapiens, UniProt P60842)", "assay": "RNA-stimulated malachite green ATPase assay", "format": "biochemical", "design": "6xHis with TEV protease site (N, cleaved yes); made in house; host or cells: E. coli BL21-CodonPlus", "conditions": "relative to compound 1", "description": "as §1, §2", "values": [
      {"smiles": "CCCCc1ccc(-c2ccc(-c3cc(C(=O)OCC)c4cc(Br)ccc4n3)o2)cc1", "note": "[Compound 2, ethyl 6-bromo-2-(5-(4-butylphenyl)furan-2-yl)quinoline-4-carboxylate]", "fold less potent than compound 1 in the ATPase assay": "about 5 fold"}
    ]},
    {"molecular_target": "eIF4A (Homo sapiens, UniProt P60842)", "assay": "RNA-stimulated malachite green ATPase assay", "format": "biochemical", "design": "6xHis with TEV protease site (N, cleaved yes); made in house; host or cells: E. coli BL21-CodonPlus", "conditions": "relative to compound 28", "description": "as §1, §2", "values": [
      {"smiles": "CCCc1ccc(-c2ccc(-c3cc(C(=O)O)c4cc([N+](=O)[O-])ccc4n3)o2)cc1", "note": "[Compound 39, 6-nitro-2-(5-(4-propylphenyl)furan-2-yl)quinoline-4-carboxylic acid]", "fold less potent than 28 in the ATPase assay": "about 5 fold"}
    ]}
  ]
}
